Data published in ChEMBL document CHEMBL4052806, “Chemical constituents from the rare mushroom Calvatia nipponica inhibit the promotion of angiogenesis in HUVECs” (Bioorg Med Chem Lett, 2017).
One block for each compound: values may come before it. Activity calls are given as the source filed them. No cut-off for these calls is given here.

What was measured:
HUVEC [1] = assay: Cytotoxicity against HUVEC assessed as reduction in cell viability after 24 hrs by MTT assay; type: cell-based; settings: human
HUVEC [2] = assay: Cytotoxicity against HUVEC assessed as reduction in cell viability up to 12.5 ug/ml after 24 hrs by MTT assay; type: cell-based; settings: human
HUVEC [3] = assay: Cytotoxicity against HUVEC assessed as reduction in cell viability at 100 ug/ml after 24 hrs by MTT assay relative to control; type: cell-based; settings: human
HUVEC [4] = assay: Antiangiogenic activity in HUVEC assessed as inhibition of tube formation on matrigel at 12.5 ug/ml after 24 hrs by Mayer's hematoxylin staining based light microscopy relative to control; type: functional; settings: Homo sapiens
HUVEC [5] = assay: Antiangiogenic activity in HUVEC assessed as inhibition of tube formation on matrigel after 24 hrs by Mayer's hematoxylin staining based light microscopy; type: functional, cell-based; settings: Homo sapiens
HUVEC [6] = assay: Down regulation of VEGF expression in HUVEC at 6.25 ug/ml after 24 hrs by Western blot analysis relative to control; type: functional, Homo sapiens
HUVEC [7] = assay: Down regulation of VEGF expression in HUVEC at 12.5 ug/ml after 24 hrs by Western blot analysis relative to control; type: functional, Homo sapiens
[8] = molecular target: T1, MAP kinase p38 (Homo sapiens) (UniProt O15264+Q15759+Q16539+P53778); assay: Inhibition of p38 phosphorylation in HUVEC at 6.25 ug/ml after 24 hrs by Western blot analysis relative to control
[9] = molecular target: T1, MAP kinase p38 (Homo sapiens); assay: Inhibition of p38 phosphorylation in HUVEC at 12.5 ug/ml after 24 hrs by Western blot analysis relative to control
Homo sapiens [10] = species on record: Homo sapiens; assay: Inhibition of ERK phosphorylation in HUVEC at 6.25 ug/ml after 24 hrs by Western blot analysis relative to control
Homo sapiens [11] = species on record: Homo sapiens; assay: Inhibition of ERK phosphorylation in HUVEC at 12.5 ug/ml after 24 hrs by Western blot analysis relative to control

Structure (SMILES): CC(=O)Nc1ccc(O)cc1 [ACETAMINOPHEN]
- Activity (HUVEC [1]): Dose-dependent effect
- Activity (HUVEC [2]): Non-Toxic
- Activity (HUVEC [3]): 25.93%
- inhibition at 12.5 µg/mL (HUVEC [4]): 10.5%

Structure (SMILES): O=C1OCc2cc(O)cc(O)c21
- inhibition (HUVEC [5]): inactive

Structure (SMILES): OCc1cc(O)cc(O)c1
- Activity (HUVEC [1]): Dose-dependent effect
- Activity (HUVEC [2]): Non-Toxic
- Activity (HUVEC [3]): 25.15%
- inhibition (HUVEC [5]): inactive

Structure (SMILES): NC(=O)c1cccnc1 [NIACINAMIDE]
- Activity (HUVEC [1]): Dose-dependent effect
- Activity (HUVEC [2]): Non-Toxic
- Activity (HUVEC [3]): 6.07%
- inhibition at 12.5 µg/mL (HUVEC [4]): 11.3%

Structure (SMILES): CN(C)c1ccccc1C(=O)O
- Activity (HUVEC [1]): Dose-dependent effect
- Activity (HUVEC [2]): Non-Toxic
- Activity (HUVEC [3]): 25.82%
- inhibition (HUVEC [5]): inactive

Structure (SMILES): CNc1ccccc1C(=O)O
- Activity (HUVEC [1]): Dose-dependent effect
- Activity (HUVEC [2]): Non-Toxic
- Activity (HUVEC [3]): 24.55%
- inhibition (HUVEC [5]): inactive

- fold change (FC) [8]: 0.87
- fold change (FC) [9]: 0.71
- fold change (FC) (Homo sapiens [10]): 1.05
- fold change (FC) (Homo sapiens [11]): 0.9
Structure (SMILES): O=C1NCc2c(O)cc(O)cc21
- Activity (HUVEC [1]): Dose-dependent effect
- Activity (HUVEC [2]): Non-Toxic
- Activity (HUVEC [3]): 23.13%
- inhibition at 12.5 µg/mL (HUVEC [4]): 32.6%
- fold change (FC) (HUVEC [6]): 0.9
- fold change (FC) (HUVEC [7]): 0.72
